# pIC50: −log10 of the molar value. Square brackets hold non-standard residues; d marks the D form. Peptide text beside a SMILES is read from it. * marks the point of attachment. Dolaproine = CO[C@@H]([C@@H]1CCCN1)[C@@H](C)C(=O)O; Dil = CC[C@H](C)[C@H](NC)[C@@H](CC(=O)O)OC; X1 = C[C@@H](N*)[C@@H](O)c1ccccc1; NMeV = CN[C@H](C(=O)O)C(C)C
# How the values were obtained:
# [1] = tested on: C16orf54 expressing Sarcoma line 1; test: Cell viability assay, C16orf54 expressing sarcoma line 1; assay type: cell-based, murine; conditions: 1000 cells/well, 72 hours
# Method: (§1) Murine sarcoma cell lines that express C16orf54 were prepared by virus infection of sarcoma cell lines. A PCR-amplified C16orf54 gene was cloned into a murine stem cell virus expression vector with a neomycin resistance gene and sequenced to confirm the identity. To prepare virus particles, HEK 293t cells with retroviral packaging proteins were transfected, in the presence of transfection reagent FUGENE HD (Roche), with the retroviral expression vector containing C16orf54. The virus particles collected from the supernatant of the culture media 48 hours after transfection were used to infect the sarcoma cells. After G418 selection, stable transfectants were pooled and then cloned by limiting dilution. Clones were then picked and expanded in the presence of antibiotics. Clones with the highest expression level of C16orf54 as measured by flow cytometry were expanded and banked. These cell lines were then used to immunize the syngeneic mice for antibody production and in the binding assays for antibody selection as follows.
# (§2) The anti-tumor activity of unconjugated anti-C16orf54 antibodies and anti-C16orf54 antibodies that were directly conjugated with […] (ADCs) was determined in a cell viability assay using several C16orf54-expressing cell lines. Cells were plated at 1000 cells/well and incubated in the presence of antibodies or ADCs for 72 hours.
# [2] = tested on: C16orf54 expressing sarcoma line 2; test: Cell viability assay, C16orf54 expressing sarcoma line 2; assay type: cell-based, murine; conditions: 1000 cells/well, 72 hours
# Method: as §1, §2
structure (smiles),measurement,setting,value
"CC[C@H](C)[C@@H]([C@@H](CC(=O)N1CCC[C@H]1[C@H](OC)[C@@H](C)C(=O)N[C@H](C)[C@@H](O)c1ccccc1)OC)N(C)C(=O)[C@@H](NC(=O)[C@@H](NC)C(C)C)C(C)C [MMAE, monomethylauristatin E] (H-[NMeV]V[Dil][Dolaproine]-X1)",pIC50,[1],9.40
same,pIC50,[2],8.39
